We go through 1 molecule from article PMC3335078, “Length and Amino Acid Sequence of Peptides Substituted for the 5-HT3A Receptor M3M4 Loop May Affect Channel Expression and Desensitization” (PLoS ONE, 2012).

The target of assay [1] is T1, 5-HT3A construct with single glycine in place of the single alanine (Mus musculus, UniProt P23979, DELINS338-452G).
T1 construct: expressed in transfected cells; host or cells: Xenopus laevis oocytes injected with mRNA
The experiment in a line: Two-electrode voltage clamp, oocytes expressing single glycine loop construct. In kind it is cell-based. The settings on record: Xenopus oocytes, data not shown. The source says:
(§1) The mouse 5-HT3A cDNA with an N-terminal V5 epitope tag was cloned into the pXOON vector as previously described, and is referred to in this paper as “wild-type” (WT). The starting construct for all of the M3M4 loop replacement constructs used in this work was the 5-HT3A-ΔM3M4 construct formed by splicing the cytoplasmic end of M3 (M3-LVHK/QDLQRP…) to the cytoplasmic end of M4 (…WLRVGY/VLDRLL-M4). The splice was made at the site of the “/” to yield the sequence M3-LVHK/VLDRLL-M4 [34]. This removed 115 residues predicted to form the M3M4 loop.
The construction of the 5-HT3A-glvM3M4 chimera with the 5-HT3A M3M4 loop replaced by the GLIC heptapeptide M3M4 loop (SQPARAA) was described previously. Point mutations, alanine and Gly-Ser-Ala insertions into the 5-HT3A-ΔM3M4 construct were generated with the Quikchange site directed mutagenesis procedure (Stratagene, La Jolla, CA). […]
Currents were recorded under two-electrode voltage clamp from oocytes 2–5 d post-injection as described previously. […]
(§2) Desensitization rates were determined by fitting a single exponential decay function to the current data with Prism 4 software (GraphPad Software). Significant differences compared with wild-type were determined by a one-way ANOVA (p<0.05) using Dunnett's multiple comparison post-hoc test (p<0.05). […]
In general terms: Two-electrode voltage clamp is typically applied to oocytes expressing channels or transporters.

The target in assay [2] is T2, 5-HT3A-A3 (M3M4 loop replaced by three alanines) (Mus musculus, UniProt P23979, DELINS338-452AAA).
T2 construct: expressed in transfected cells; host or cells: Xenopus laevis oocytes injected with mRNA
T2 sequence (P23979 with tags, fused parts or gaps isoform P23979-2 DELINS338-452AAA limits assumed): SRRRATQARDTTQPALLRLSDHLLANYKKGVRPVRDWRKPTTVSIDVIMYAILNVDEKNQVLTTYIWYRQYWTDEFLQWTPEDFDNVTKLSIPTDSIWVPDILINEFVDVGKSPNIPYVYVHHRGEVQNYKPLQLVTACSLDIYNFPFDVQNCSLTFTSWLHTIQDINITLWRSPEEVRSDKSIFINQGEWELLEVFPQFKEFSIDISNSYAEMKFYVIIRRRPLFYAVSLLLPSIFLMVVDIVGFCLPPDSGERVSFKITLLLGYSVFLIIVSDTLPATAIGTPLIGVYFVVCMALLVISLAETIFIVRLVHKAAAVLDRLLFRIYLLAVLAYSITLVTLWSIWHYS
The assay is described as follows: Two-electrode voltage clamp, oocytes expressing 5-HT3A-A3. In kind it is cell-based.
Excerpt: as §1
The construction of the 5-HT3A-glvM3M4 chimera with the 5-HT3A M3M4 loop replaced by the GLIC heptapeptide M3M4 loop (SQPARAA) was described previously. Point mutations, alanine and Gly-Ser-Ala insertions into the 5-HT3A-ΔM3M4 construct were generated with the Quikchange site directed mutagenesis procedure (Stratagene, La Jolla, CA). The entire coding region of all mutant constructs was verified by DNA sequencing (Albert Einstein College of Medicine DNA Sequencing Facility). The pXOON plasmid was linearized using NheI and capped mRNA prepared with T7 RNA polymerase (mMessage mMachine, Ambion, Austin, TX).
Use of Xenopus laevis in this study was carried out in strict accordance with the recommendations in the Guide for the Care and Use of Laboratory Animals of the National Institutes of Health. The protocol was approved by the Albert Einstein College of Medicine Animal Care and Use Committee (Protocol Number: 20081201). All surgery was performed under tricaine anesthesia, and all efforts were made to minimize suffering. Oocyctes were harvested from Xenopus (Nasco Science, Fort Atkinson, WI) anesthetized with 0.15% tricaine. Oocyctes were defolliculated by incubation in 2 mg ml^−1 Type 1A collagenase (Sigma-Aldrich, St. Louis, MO) in OR2 (85 mM NaCl, 2 mM KCl, 1 mM MgCl2, and 5 mM HEPES; pH adjusted to 7.5 with NaOH) for a 60 or 75 min. Oocytes were washed in OR2 and stored at 16°C in SOS medium: 100 mM NaCl, 2 mM KCl, 1 mM MgCl2, 1.8 mM CaCl2 5 mM HEPES, pH 7.5 with 100 IU ml^−1 penicillin, 100 µg ml^−1 streptomycin, and 250 ng ml^−1 amphotericin B (Invitrogen, Carlsbad, CA) and 5% horse serum (Sigma-Aldrich). 24 hrs following isolation, oocyctes were injected with 23 nl (2.3 ng) of mRNA and were kept in SOS media for 2–5 d at 16°C.
Currents were recorded under two-electrode voltage clamp from oocytes 2–5 d post-injection as described previously. […] The perfusion chamber volume was 200 µl. […]
as §2

Assay [3] deals with T3, 5-HT3A-A2 (Mus musculus, UniProt P23979, DELINS338-452AA).
T3 construct: expressed in transfected cells; host or cells: Xenopus laevis oocytes injected with mRNA
The experiment in a line: Radioactive 5-HT binding to oocytes expressing 5-HT3A-A2. Particulars: 150 nM [3H]5-HT + 10 µM 5-HT, 5 min, 45 s cold wash. As to the method:
(§3) Assays were terminated by five washes with ice cold CFFR buffer, followed by solubilization of the oocytes individually with 200 µl 5% SDS. Total wash time was 45 s. […] All data points represent the average of at least fifteen individual oocytes derived from three separate oocyte isolations.
(§4) To determine the extent of non-specific binding, all binding experiments were performed in parallel with diethylpyrocarbonate-(DEPC)-treated-water injected oocytes or uninjected oocytes.

The target of assay [4] is T4, 5-HT3A receptor wild-type (Mus musculus, UniProt P23979).
T4 construct: unrelated to the structural/functional states accessible to a normal full-length 5-HT3A receptor; expressed in transfected cells; host or cells: Xenopus laevis oocytes injected with mRNA
The assay is described as follows: Radioactive 5-HT binding to oocytes expressing WT 5-HT3A. Particulars: 150 nM [3H]5-HT + 10 µM 5-HT, 5 min room temperature, 45 s cold wash. As to the method:
as §3, §4

Assay [5] has as its target T5, 5-HT3A receptor wild-type (WT, V5-tagged) (Mus musculus, UniProt P23979).
T5 construct: unrelated to the structural/functional states accessible to a normal full-length 5-HT3A receptor; expressed in transfected cells; host or cells: Xenopus laevis oocytes injected with mRNA
T5 sequence (P23979 24-483 isoform P23979-2 limits assumed): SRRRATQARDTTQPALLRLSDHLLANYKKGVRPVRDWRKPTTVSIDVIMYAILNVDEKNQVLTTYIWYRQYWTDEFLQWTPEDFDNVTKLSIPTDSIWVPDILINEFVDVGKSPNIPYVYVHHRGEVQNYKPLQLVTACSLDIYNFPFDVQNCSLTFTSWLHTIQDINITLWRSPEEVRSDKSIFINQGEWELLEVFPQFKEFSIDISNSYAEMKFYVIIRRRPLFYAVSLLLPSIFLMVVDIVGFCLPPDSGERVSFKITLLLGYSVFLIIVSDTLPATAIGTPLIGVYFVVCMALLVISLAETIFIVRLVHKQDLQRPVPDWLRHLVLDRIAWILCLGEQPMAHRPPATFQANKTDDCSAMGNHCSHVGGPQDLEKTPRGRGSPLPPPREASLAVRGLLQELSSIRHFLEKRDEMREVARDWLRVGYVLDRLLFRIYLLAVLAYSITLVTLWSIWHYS
The experiment in a line: Two-electrode voltage clamp, 5-HT-induced currents in oocytes expressing wild-type 5-HT3A. Particulars: wildtype. In kind it is cell-based.
Experimental: The mouse 5-HT3A cDNA with an N-terminal V5 epitope tag was cloned into the pXOON vector as previously described [34], and is referred to in this paper as “wild-type” (WT).
Currents were recorded under two-electrode voltage clamp from oocytes 2–5 d post-injection as described previously [37]. […] The perfusion chamber volume was 200 µl. A 3 M KCl/agar bridge connected the ground electrode to the bath. The holding potential was maintained at −60 mV. […] Salts were purchased from Fisher Scientific (Hampton, NH) or Sigma-Aldrich.
Desensitization rates were determined by fitting a single exponential decay function to the current data with Prism 4 software (GraphPad Software). Significant differences compared with wild-type were determined by a one-way ANOVA (p<0.05) using Dunnett's multiple comparison post-hoc test (p<0.05). […] One way ANOVA (P<0.05) with post hoc Dunnett's Multiple Comparison test was performed using Prism 5.0 (Graphpad software.)

Assay [6] has as its target T6, 5-HT3A-A7 (Mus musculus, UniProt P23979).
T6 construct: expressed in transfected cells; host or cells: Xenopus laevis oocytes injected with mRNA
The assay is described as follows: Radioactive 5-HT binding to oocytes expressing 5-HT3A-A7. Particulars: 150 nM [3H]5-HT + 10 µM 5-HT, 5 min, 45 s cold wash. The procedure:
as §3, §4

T3 sequence (P23979 with tags, fused parts or gaps isoform P23979-2 DELINS338-452AA limits assumed): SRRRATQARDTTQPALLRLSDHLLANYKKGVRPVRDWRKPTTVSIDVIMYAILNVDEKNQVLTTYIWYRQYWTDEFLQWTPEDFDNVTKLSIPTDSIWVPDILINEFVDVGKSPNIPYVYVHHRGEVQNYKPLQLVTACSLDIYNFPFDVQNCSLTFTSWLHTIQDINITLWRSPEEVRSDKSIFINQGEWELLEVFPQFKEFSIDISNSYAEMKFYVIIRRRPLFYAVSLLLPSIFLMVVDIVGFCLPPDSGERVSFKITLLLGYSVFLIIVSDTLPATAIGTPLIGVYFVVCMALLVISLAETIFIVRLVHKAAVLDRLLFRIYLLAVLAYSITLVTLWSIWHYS
T6 sequence (P23979 with tags, fused parts or gaps isoform P23979-2 limits assumed): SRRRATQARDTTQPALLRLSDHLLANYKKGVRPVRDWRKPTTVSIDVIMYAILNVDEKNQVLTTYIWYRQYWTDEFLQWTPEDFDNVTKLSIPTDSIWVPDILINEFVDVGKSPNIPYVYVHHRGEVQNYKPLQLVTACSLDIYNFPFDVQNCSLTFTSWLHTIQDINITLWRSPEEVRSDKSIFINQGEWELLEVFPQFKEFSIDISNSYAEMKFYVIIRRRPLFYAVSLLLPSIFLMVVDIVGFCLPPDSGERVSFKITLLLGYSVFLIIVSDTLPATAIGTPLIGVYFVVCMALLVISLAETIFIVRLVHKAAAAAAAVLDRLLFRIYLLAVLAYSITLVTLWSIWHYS
T1 sequence (P23979 with tags, fused parts or gaps isoform P23979-2 DELINS338-452G limits assumed): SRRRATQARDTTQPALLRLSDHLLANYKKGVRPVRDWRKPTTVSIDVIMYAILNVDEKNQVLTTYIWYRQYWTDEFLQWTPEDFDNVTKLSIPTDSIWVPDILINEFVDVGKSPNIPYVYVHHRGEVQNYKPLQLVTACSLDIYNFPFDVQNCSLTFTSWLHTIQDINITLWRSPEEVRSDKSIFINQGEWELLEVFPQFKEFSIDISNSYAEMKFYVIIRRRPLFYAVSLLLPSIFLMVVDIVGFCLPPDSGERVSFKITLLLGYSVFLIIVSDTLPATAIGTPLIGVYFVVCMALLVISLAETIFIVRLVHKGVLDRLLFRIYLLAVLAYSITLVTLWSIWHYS

Take `NCCc1c[nH]c2ccc(O)cc12` [5-HT, 5-hydroxytryptamine]: in assay [1], the 5-HT induced current entry is given as “neither construct generated any 5-HT induced currents”. Also, the “nH (Hill coefficient)” value in assay [2] stood at 2.6±0.4. The “10–90% Activation rise time” value in assay [2] (10 µM 5-HT) came to 621 ± 47 ms; in assay [5] (10 µM 5-HT), 587 ± 51 ms. The “Imax (peak current)” value is listed as 6300±800 nA in assay [2] (10 µM 5-HT, Xenopus oocytes, -60 mV) and 7300±700 nA in assay [5] (10 µM 5-HT (saturating), Xenopus oocytes, -60 mV). Moreover, the “Desensitization time constant τ” value in assay [2] (prolonged 10 µM 5-HT, may be limited by solution exchange) was 8 ± 2 s; in assay [5] (prolonged 10 µM 5-HT, Ca-free buffer), 77 ± 18 s. The figures for the “Radiolabeled 5-HT bound per oocyte” value in assay [3], in assay [4] and in assay [6] were 0.33±0.06 pmol per oocyte, 2.50±0.3 pmol per oocyte and 0.40±0.08 pmol per oocyte, respectively.
